Results published in US20220324835A1 (Nurix Therapeutics, Inc., priority 2018, published 2022).

Columns and labels:
T-cell [1] = test: IL-2 secretion from T-cells stimulated with anti-CD3 antibody alone (Biological Example 2); format: cell-based, human; conditions: T-cell, fold change over baseline, primary human total T-cells, read-out: IL-2 secretion Anti-CD3 stimulation; for fold induction at 1 µM: 1 μM Cbl-b inhibitor; for fold induction at 8 µM: 8 μM Cbl-b inhibitor
T-cell [2] = test: CD25 cell surface staining on T-cells co-stimulated with anti-CD3 and anti-CD28 antibody (Biological Example 2); format: cell-based, human; conditions: Homo sapiens, T-cell, fold change over baseline, primary human total T-cells, read-out: CD25 staining Anti-CD3/Anti-CD28 stimulation; for fold induction at 0.3 µM: 0.3 μM Cbl-b inhibitor; for fold induction at 1 µM: 1 μM Cbl-b inhibitor; for fold induction at 4 µM: 4 μM Cbl-b inhibitor
Summary of the method: (§1)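 Values are fold-change over baseline: readings (IL-2 release, CD25 staining) from inhibitor-treated T-cells divided against untreated cells […]. No detailed procedure stated.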

T-cell [3] = test: CD25 cell surface staining on T-cells stimulated with anti-CD3 antibody alone (Biological Example 2); format: cell-based, human; conditions: T-cell, fold change over baseline, primary human total T-cells, read-out: CD25 staining Anti-CD3 stimulation; for fold induction at 1 µM: 1 μM Cbl-b inhibitor; for fold induction at 8 µM: 8 μM Cbl-b inhibitor
Cbl-b (residues 36-427) = Cbl-b (residues 36-427) (Homo sapiens, UniProt Q13191); test: Cbl-b binding assay (SPR, Biacore T200); conditions: 20° C., 1:1 binding model
Summary of the method: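 NeutrAvidin capture chip, 20° C; 50 s injections at 50 μl/min, 90-180 s dissociation; 0.3 M NaCl regeneration. Asterisked column: 50 mM NaCl buffer and 30 nM Src kinase in place of 100 mM NaCl and 60 nM Src kinase. 1:1 fit.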

T-cell [4] = test: IL-2 secretion from T-cells co-stimulated with anti-CD3 and anti-CD28 antibody (Biological Example 2); format: cell-based, human; conditions: Homo sapiens, T-cell, fold change over baseline, primary human total T-cells, read-out: IL-2 secretion Anti-CD3/Anti-CD28 stimulation; for fold induction at 0.3 µM: 0.3 μM Cbl-b inhibitor; for fold induction at 1 µM: 1 μM Cbl-b inhibitor; for fold induction at 4 µM: 4 μM Cbl-b inhibitor
Summary of the method: as §1

Cbl-b [5] = molecular target: T1, Cbl-b (Homo sapiens, UniProt Q13191); test: Cbl-b activity assay (Cbl-b inhibition assay), TR-FRET of Cbl-b interaction with UbcH5B-Ub; format: biochemical; conditions: assay buffer with 100 mM NaCl, 60 nM Src kinase; read-out: Cbl-b activity IC50
Summary of the method: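 Compound-treated Cbl-b was incubated 1.5 h with Src kinase (60 nM final; 30 nM for asterisked values, which also used 50 mM instead of 100 mM NaCl), 1 mM ATP and 5 mM MgCl2. Binding to fluorescent Ub-loaded UbcH5B (C85K mutant) was then read by TR-FRET after 1 h more.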

Cbl-b [6] = molecular target: T1, Cbl-b; test: Cbl-b inhibition assay (Cbl-b activity assay, FRET, Biological Example 1; 100 mM NaCl, 60 nM Src kinase); format: biochemical; conditions: upper bound stated in text lists; read-out: IC50 values in the Cbl-b inhibition assay of Biological Example 1
Summary of the method: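 N-terminally biotinylated Avi-tagged Cbl-b was mixed with Src kinase, UbcH5B covalently conjugated to Bodipy-fluorescein ubiquitin, and streptavidin-terbium. Src phosphorylation lets Cbl-b bind UbcH5B-Ub, giving terbium-fluorescein FRET; inhibition is read as loss of FRET signal.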

T1 sequence (Q13191 36-427): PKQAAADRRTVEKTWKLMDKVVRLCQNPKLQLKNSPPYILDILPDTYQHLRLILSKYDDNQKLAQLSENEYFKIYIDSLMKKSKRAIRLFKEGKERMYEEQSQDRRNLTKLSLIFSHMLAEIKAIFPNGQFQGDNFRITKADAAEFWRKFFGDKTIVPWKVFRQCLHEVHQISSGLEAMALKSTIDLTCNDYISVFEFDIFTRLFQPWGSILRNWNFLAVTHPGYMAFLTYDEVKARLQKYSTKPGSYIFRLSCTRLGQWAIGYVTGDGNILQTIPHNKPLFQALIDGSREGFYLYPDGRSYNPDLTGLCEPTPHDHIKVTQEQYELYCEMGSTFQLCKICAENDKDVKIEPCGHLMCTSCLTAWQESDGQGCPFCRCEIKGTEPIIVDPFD
Chain of Cbl-b (residues 36-427) (Q13191 36-427): as above

In the case of C[C@H](Cc1nncn1C)c1cc(N[C@H]2CCOC2)nc(N2Cc3c(cccc3C(F)(F)F)C2=O)c1 (stereo in doubt) [Compound 361, 2-(4-((R)-1-(4-methyl-4H-1,2,4-triazol-3-yl)propan-2-yl)-6-((R)-THF-3-ylamino)pyridin-2-yl)-4-(trifluoromethyl)isoindolin-1-one], the fold induction at 1 µM (T-cell [1]) is reported as 0.051 to 0.1, the fold induction at 8 µM (T-cell [1]) is reported as 0.151 to 0.2 and the fold induction at 0.3 µM (T-cell [2]) is reported as less than 1. The fold induction at 1 µM (T-cell [2]) was 1.01 to 1.3, the fold induction at 4 µM (T-cell [2]) was 1.01 to 1.3 and the fold induction at 1 µM (T-cell [3]) was 0.601 to 0.8. The fold induction at 8 µM (T-cell [3]) was 0.801 to 1, the Kd (Cbl-b (residues 36-427)) was 301 to 1000 nM and the fold induction at 0.3 µM (T-cell [4]) was 1.01 to 2.5. The fold induction at 1 µM (T-cell [4]) was 1.01 to 2.5, the fold induction at 4 µM (T-cell [4]) was 1.01 to 2.5 and the IC50 (Cbl-b [5]) was 301 to 1000 nM.
CC(c1cccc(NC(=O)c2ccc(CO)c(C3CC3)n2)c1)C(F)(F)c1nncn1C (stereo not drawn) [Compound 287, 6-cyclopropyl-N-(3-(1,1-difluoro-1-(4-methyl-4H-1,2,4-triazol-3-yl)propan-2-yl)phenyl)-5-(hydroxymethyl)picolinamide] gave an IC50 (Cbl-b [6]) of no more than 500 nM, a Kd (Cbl-b (residues 36-427)) of 1000 to 3000 nM and an IC50 (Cbl-b [5]) of 100 to 300 nM.
CC(c1cccc(N2Cc3c(cccc3C(F)(F)F)C2=O)c1)C(F)(F)c1nncn1C (stereo not drawn) [Compound 294, 2-(3-(1,1-difluoro-1-(4-methyl-4H-1,2,4-triazol-3-yl)propan-2-yl)phenyl)-4-(trifluoromethyl)isoindolin-1-one] showed an IC50 (Cbl-b [6]) of no more than 500 nM, a Kd (Cbl-b (residues 36-427)) of less than 100 nM and an IC50 (Cbl-b [5]) of 301 to 1000 nM.
For Cn1cnnc1C(F)(F)C(C)(O)c1cccc(N2Cc3c(cccc3C(F)(F)F)C2=O)c1 (stereo not drawn) [Compound 295, 2-(3-(1,1-difluoro-2-hydroxy-1-(4-methyl-4H-1,2,4-triazol-3-yl)propan-2-yl)phenyl)-4-(trifluoromethyl)isoindolin-1-one], the IC50 (Cbl-b [6]) was no more than 10000 nM, the Kd (Cbl-b (residues 36-427)) was 1000 to 3000 nM and the IC50 (Cbl-b [5]) was 3000 to 10000 nM.
With Cn1cnnc1C[C@@](C)(F)c1cccc(N2Cc3c(cccc3C(F)(F)F)C2=O)c1 [Compound 298a, (R)-2-(3-(2-fluoro-1-(4-methyl-4H-1,2,4-triazol-3-yl)propan-2-yl)phenyl)-4-(trifluoromethyl)isoindolin-1-one] the IC50 (Cbl-b [6]) was no more than 10000 nM, the Kd (Cbl-b (residues 36-427)) was 3000 to 10000 nM and the IC50 (Cbl-b [5]) was 1000 to 3000 nM.
In the case of C[C@H](Cc1nncn1C)c1ccnc(NC(=O)c2ccc3ccccc3n2)c1 [Compound 303, (R)-N-(4-(1-(4-methyl-4H-1,2,4-triazol-3-yl)propan-2-yl)pyridin-2-yl)quinoline-2-carboxamide], the IC50 (Cbl-b [6]) is reported as no more than 1000 nM, the Kd (Cbl-b (residues 36-427)) is reported as 3000 to 10000 nM and the IC50 (Cbl-b [5]) is reported as 301 to 1000 nM.
Work on C[C@@H](Cc1nncn1C)c1ccnc(N2Cc3c(cccc3C(F)(F)F)C2=O)c1 [Compound 304a, (S)-2-(4-(1-(4-methyl-4H-1,2,4-triazol-3-yl)propan-2-yl)pyridin-2-yl)-4-(trifluoromethyl)isoindolin-1-one] yielded an IC50 (Cbl-b [6]) of no more than 10000 nM, a Kd (Cbl-b (residues 36-427)) greater than 10000 nM and an IC50 (Cbl-b [5]) of 3000 to 10000 nM.
CNC(=O)COc1ccc2cnc(C(=O)Nc3cccc([C@H](C)Sc4nncn4C)c3)cc2c1 [Compound 306a, (S)-N-(3-(1-(4-methyl-4H-1,2,4-triazol-3-ylthio)ethyl)phenyl)-6-(2-(methylamino)-2-oxoethoxy)isoquinoline-3-carboxamide] was tested, and the fold induction at 1 µM (T-cell [1]) was less than 0.05, the fold induction at 8 µM (T-cell [1]) was less than 0.05 and the fold induction at 0.3 µM (T-cell [2]) was 1.01 to 1.3. For the same compound, the fold induction at 1 µM (T-cell [2]) was 1.01 to 1.3, the fold induction at 4 µM (T-cell [2]) was 1.01 to 1.3 and the fold induction at 1 µM (T-cell [3]) was less than 0.6. For the same compound, the fold induction at 8 µM (T-cell [3]) was 0.801 to 1, the Kd (Cbl-b (residues 36-427)) was 100 to 300 nM and the fold induction at 0.3 µM (T-cell [4]) was less than 1. For the same compound, the fold induction at 1 µM (T-cell [4]) was 1.01 to 2.5, the fold induction at 4 µM (T-cell [4]) was 1.01 to 2.5 and the IC50 (Cbl-b [5]) was 100 to 300 nM.
In the case of C[C@H](Sc1nncn1C)c1cccc(NC(=O)c2cc3cc(OCc4ccn[nH]4)ccc3cn2)c1 [Compound 307, (S)-6-((1H-pyrazol-5-yl)methoxy)-N-(3-(1-((4-methyl-4H-1,2,4-triazol-3-yl)thio)ethyl)phenyl)isoquinoline-3-carboxamide], the fold induction at 1 µM (T-cell [1]) is reported as 0.051 to 0.1, the fold induction at 8 µM (T-cell [1]) is reported as 0.101 to 0.15 and the fold induction at 0.3 µM (T-cell [2]) is reported as less than 1. For the same compound, the fold induction at 1 µM (T-cell [2]) was less than 1, the fold induction at 4 µM (T-cell [2]) was 1.01 to 1.3 and the fold induction at 1 µM (T-cell [3]) was less than 0.6. The fold induction at 8 µM (T-cell [3]) was less than 0.6, the Kd (Cbl-b (residues 36-427)) was 301 to 1000 nM and the fold induction at 0.3 µM (T-cell [4]) was 1.01 to 2.5. The fold induction at 1 µM (T-cell [4]) was 1.01 to 2.5, the fold induction at 4 µM (T-cell [4]) was 2.51 to 5 and the IC50 (Cbl-b [5]) was 100 to 300 nM.
C[C@H](Cc1nncn1C)c1cccc(NC(=O)c2[nH]nc3c2CCCC3)c1 [Compound 327, (R)-N-(3-(1-(4-Methyl-4H-1,2,4-triazol-3-yl)propan-2-yl)phenyl)-4,5,6,7-tetrahydro-2H-indazole-3-carboxamide] gave a fold induction at 1 µM (T-cell [1]) of 0.051 to 0.1, a fold induction at 8 µM (T-cell [1]) of 0.051 to 0.1 and a fold induction at 0.3 µM (T-cell [2]) of 1.01 to 1.3. For the same compound, the fold induction at 1 µM (T-cell [2]) was 1.01 to 1.3, the fold induction at 4 µM (T-cell [2]) was 1.01 to 1.3 and the fold induction at 1 µM (T-cell [3]) was 0.601 to 0.8. For the same compound, the fold induction at 8 µM (T-cell [3]) was 0.801 to 1, the Kd (Cbl-b (residues 36-427)) was 1000 to 3000 nM and the fold induction at 0.3 µM (T-cell [4]) was 1.01 to 2.5. It also gave a fold induction at 1 µM (T-cell [4]) of 1.01 to 2.5, a fold induction at 4 µM (T-cell [4]) of 1.01 to 2.5 and an IC50 (Cbl-b [5]) of 301 to 1000 nM.
For Cc1ccc(C(=O)Nc2cccc([C@@H](C)Cc3nccn3C)c2)nc1C1CC1 [Compound 331], the fold induction at 1 µM (T-cell [1]) was less than 0.05, the fold induction at 8 µM (T-cell [1]) was 0.051 to 0.1 and the fold induction at 0.3 µM (T-cell [2]) was less than 1. The fold induction at 1 µM (T-cell [2]) was less than 1, the fold induction at 4 µM (T-cell [2]) was 1.01 to 1.3 and the fold induction at 1 µM (T-cell [3]) was less than 0.6. The fold induction at 8 µM (T-cell [3]) was 0.601 to 0.8, the Kd (Cbl-b (residues 36-427)) was 1000 to 3000 nM and the fold induction at 0.3 µM (T-cell [4]) was 1.01 to 2.5. The fold induction at 1 µM (T-cell [4]) was 1.01 to 2.5, the fold induction at 4 µM (T-cell [4]) was 1.01 to 2.5 and the IC50 (Cbl-b [5]) was 301 to 1000 nM.
Work on C[C@H](Cc1nncn1C)c1cccc(N2Cc3c(cc(CN4CC[C@H](O)C4)cc3C(F)(F)F)C2=O)c1 [Compound 394, 6-(((S)-3-hydroxypyrrolidin-1-yl)methyl)-2-(3-((R)-1-(4-methyl-4H-1,2,4-triazol-3-yl)propan-2-yl)phenyl)-4-(trifluoromethyl)isoindolin-1-one] yielded an IC50 (Cbl-b [6]) of no more than 100 nM, a Kd (Cbl-b (residues 36-427)) of less than 100 nM and an IC50 (Cbl-b [5]) of less than 100 nM.
Compound CCCOc1cc([C@H](C)Cc2nncn2C)cc(N2Cc3c(cccc3C(F)(F)F)C2=O)n1 [Example 688, (R)-2-(4-(1-(4-methyl-4H-1,2,4-triazol-3-yl)propan-2-yl)-6-propoxy-pyridin-2-yl)-4-(trifluoromethyl)isoindolin-1-one] has an IC50 (Cbl-b [6]) of no more than 1000 nM, a Kd (Cbl-b (residues 36-427)) of 1000 to 3000 nM and an IC50 (Cbl-b [5]) of 301 to 1000 nM.
